Results published in patent publication US7767817B2, “Water soluble boronic acid fluorescent reporter compounds and methods of use thereof” (priority 2003, dated 2010).
Values joined by “and” are separate entries in the source; they are usually repeats but may differ in a detail not shown here. Equal entries are not always repeated. Where two headings read alike, the source gives them in different places. Values belong to the compound of their own block, whether it stands above or below them.

What was measured:
[1] = Fluorescence intensity pH profile (apparent pKa); format: physicochemical
Text: Since the fluorescence intensity increase upon binding with a sugar seems to be a general phenomenon, the fluorescence change mechanism of compound 5 at pH 7.4 was investigated. For this purpose, the fluorescence pH profiles of both compound 5 alone and compound 5 in the presence of fructose (0.5 M) were studied. The fluorescence intensity of 5 at 334 nm in the absence of sugars decreased upon changing the pH from 3 to 12 (FIG. 3). An apparent pKa of 7.0 was observed, which is assigned to the boronic acid moiety. […] It is well-known that the binding of a diol to boronic acid often lowers the pKa of the boron species) (Springsteen, G.; Wang, B. Tetrahedron 2002, 58, 5291-5300). Therefore, the pKa, which drops from 7.0 to 4.0, can also be reasonably assigned to boron. […] It seems that the fluorescence intensity change of compound 5 is also due to diol's perturbation as that of 8-quinolineboronic acid.
To examine the relationship between the fluorescence intensity changes and the boron ionization states, the pH profile of the fluorescence intensity in the absence and presence of fructose and glucose at a fixed concentration (50 mM) was also studied (FIG. 6). […] It is worth mentioning that the pKa of the protonated dimethyl amino group of 1 is […] the emission wavelength of 1 with the protonated dimethyl amino group at low pH is about 238 nm. Therefore, the fluorescence intensity of 1 at 445 nm was not affected by the protonated dimethyl amino group. The fluorescence intensity changes correspond to the boronic acid pKa (9.4) and therefore hybridization changes, which was responsible for the fluorescence intensity changes observed.
Since the fluorescence intensity increase upon binding with a sugar seems to be a general phenomenon, next the conditions under which optimal fluorescence intensity changes are observed upon addition of a sugar was investigated. For this purpose, the fluorescence pH profiles of both compound 6 alone and in the presence of fructose (0.5 M) were studied. The fluorescence intensity of 6 in the absence of sugars increased by 17-fold upon changing the pH from 3 to 12 (FIG. 10). […] Furthermore, one would expect the pKa values of the other two ionizable groups, the carboxylic acid and the quinolinium groups, to be less than 7. Therefore, assigning the pKa at 7.9 to the boronic acid moiety is the most reasonable option. […] It is well-known that the binding of a diol to boronic acid often lowers the pKa of the boron species. […] Upon addition of fructose, the pKa of the boron drops to about 5.2, which ensures that most of the boron species are in the anionic tetrahedral state at physiological pH.
(§1) Since the fluorescence intensity increase upon binding with a sugar seems to be a general phenomenon, the use of 5-QBA functions as a fluorescent probe for diols was investigated. The fluorescence pH profiles of both 5-QBA alone and 5-QBA in the presence of D-fructose (0.5 M) were investigated. […] In order to assign each pKa, the ^11B NMR spectra of 5-QBA and its ester in a mixed deuterated methanol-water (1:1) solvent at different pH were obtained. Methanol was used so that the concentration of 5-QBA can be increased to 57 mM so as to allow for a meaningful NMR determination within a reasonable period of time.
To understand the structural features associated with the fluorescence intensity changes, we studied the pH profiles of the fluorescence intensity in the absence (FIG. 18) and presence of fructose and glucose at a fixed concentration (50 mM). […] The fluorescence intensity at 513 nm increased very quickly when pH increased from 1.78 to 7.04 (thin lines in FIG. 18), and then decreased in the pH range of 7.04-10.54 (thick lines in FIG. 18).

[2] = 11B NMR at different pH (pKa assignment); format: physicochemical; details: absence of sugar; 11B NMR in deuterated methanol-water (1:1); read-out: second pKa corresponding to boronic acid ionization
Text: as §1
It should be noted that the addition of 50% methanol to water solution results in minimal changes of the solution pH. The boron signal of 5-QBA appeared at 30.0 ppm at both pH 2.0 and 7.0, consistent with the neutral trigonal boron. At an increased pH (7.5), two boron signals at 30.0 and 10.0 ppm were observed indicating a mixture of both the neutral and anionic species. […] At pH 12, a single peak at 5.7 ppm was found indicating the presence of only the anionic tetrahedral state. […] This pKa assignment is opposite to that of 8-QBA. For the fructose ester of 5-QBA, we observed the same chemical shifts (at about 10.5 ppm) at pH 6.0 and 11. […] Such a pKa-switching seems to correspond to the highest fluorescence intensity change at pH 5.8 (FIG. 13).

[3] = Fluorescence binding study with mannose; details: for Association constant (Ka) with mannose: 0.1 M phosphate buffer pH 7.4, 1:1 complex assumed
Protocol: (§2) For a typical sugar-BTBA fluorescent measurement, a 1.0×10^−5 M stock solution of BTBA in 0.10 M phosphate buffer at pH 7.4 was made as solution A. […] Solution B was titrated into solution A in order to make mixtures with a constant concentration of BTBA and a range of concentrations of the sugar. Each mixture was allowed to stand for at least 10 min, then 3.0 mL of the mixture was transferred into a cuvette for fluorescence measurement.
(§3) The association constants (Ka) were determined according to the method III in Valeur's publication (J. Phys. Chem. 1988, 92, 6233).

[4] = Fluorescence binding study with galactose; details: for Association constant (Ka) with galactose: 0.1 M phosphate buffer pH 7.4, 1:1 complex assumed; for fluorescence intensity change ΔI/I0: pH 7.4
Protocol: as §2, §3

[5] = Fluorescence binding study with arabinose; details: 0.1 M phosphate buffer pH 7.4
Protocol: For a typical sugar-BTBA fluorescent measurement, a 1.0×10^−5 M stock solution of BTBA in 0.10 M phosphate buffer at pH 7.4 was made as solution A. The sugar was added to a portion of solution A to make a 1.0×10^−5 M BTBA, 1.0×10^−3 M sugar solution as solution B. Solution B was titrated into solution A in order to make mixtures with a constant concentration of BTBA and a range of concentrations of the sugar. Each mixture was allowed to stand for at least 10 min, then 3.0 mL of the mixture was transferred into a cuvette for fluorescence measurement.
as §3

[6] = Fluorescence binding study with fructose; details: for Association constant (Ka) with fructose: 0.1 M phosphate buffer pH 7.4, 1:1 complex assumed; for fluorescence intensity change ΔI/I0: pH 7.4
Protocol: as §2, §3

[7] = Fluorescence binding study with glucose; details: for Association constant (Ka) with glucose: 0.1 M phosphate buffer pH 7.4, 1:1 complex assumed; for maximum fluorescence intensity increase: physiological pH; for fluorescence intensity change ΔI/I0: pH 7.4
Protocol: as §2, §3

[8] = literature value (Springsteen, Wang); cited from earlier work
[9] = literature value (Springsteen, Wang); cited from earlier work; remark: listed apart in the source
[10] = literature value; cited from earlier work
[11] = in 12 M H2SO4; reference compound; cited from earlier work
[12] = Fluorescence binding study with sorbitol
Protocol: as §2, §3

[13] = Fluorescence binding study with tagatose
Protocol: as §2, §3

[14] = Fluorescence quantum yield; format: physicochemical; details: 0.1 M phosphate buffer pH 7.4
Protocol: The effect of various carbohydrates on the fluorescent properties of compound 1 was determined in phosphate buffer at pH 7.4. The emission spectral change of 1 with fructose at different concentrations in 0.1 M aqueous phosphate buffer (pH 7.4) is shown in FIG. 4. A 41-fold emission intensity increase is observed in presence of 50 mM fructose. To the best of our knowledge, such a large emission intensity increase has never been reported for boronic acid-based saccharide sensors involving the ICT mechanism. The quantum yields of 1 in the absence (φF=0.010) and in the presence of 50 mM fructose (φF=0.42) in 0.1 M phosphate buffer (pH 7.4) were obtained using 8-quinoline boronic acid (φF=0.58 in 12 M H2SO4) as a reference compound.
For example, addition of fructose (50 mM) to the solution of 7 induced a 36-fold fluorescence intensity increase at 433 nm and a 0.55-fold fluorescence intensity decrease at 513 nm (FIG. 14). […] To the best of our knowledge, such large emission intensity changes at two wavelengths have never been reported for boronic acid-based saccharide sensors. The quantum yields (φF) of 7 were determined as 0.07 at 513 nm in 0.1 M phosphate buffer (pH 7.4) in the absence of a sugar and 0.23 at 433 nm in the presence of 50 mM of fructose, using 8-quinoline boronic acid (φF=0.58 in 12 M H2SO4) as a reference compound.

[15] = 0.1 M phosphate buffer, absence of sugar, 0.1 M phosphate buffer, read-out: apparent pKa assigned to the boronic acid moiety
[16] = 0.1 M phosphate buffer pH 7.4, 1:1 complex assumed

SMILES: OB(O)c1ccccc1 [phenylboronic acid]
Ka for galactose [8]: 15 M⁻¹
Ka for glucose [9]: 5 M⁻¹
Ka for fructose [10]: 162 M⁻¹

SMILES: OB(O)c1cccc2cccnc12 [Compound 4, 8-quinolineboronic acid]
quantum yield φF [11]: 0.58

SMILES: CN(C)c1ccc(B(O)O)c2ccccc12 [Compound 1, 4-(dimethylamino)-naphthalene boronic acid]
Association constant (Ka) with sorbitol [12, 16]: 226 ± 5 M⁻¹
fluorescence intensity change ΔI/I0 ([12]; sorbitol 0.10 M, pH 7.4, λex 300 nm, λem 445 nm): 42 (0.10)
fluorescence intensity change ([12]; sorbitol at concentrations above 50 mM, physiological pH): more than 40 fold
pKa [1, 15]: 9.4
Association constant (Ka) with tagatose [13, 16]: 116 ± 2 M⁻¹
fluorescence intensity change ΔI/I0 ([13]; tagatose 0.02 M, pH 7.4, λex 300 nm, λem 445 nm): 32 (0.02)
Association constant (Ka) with mannose [3]: 48 ± 5 M⁻¹
fluorescence intensity change ΔI/I0 ([3]; mannose 0.025 M, pH 7.4, λex 270 nm, λem 400 nm): 14 (0.025)
quantum yield φF ([14]; absence of sugar): 0.010
quantum yield φF ([14]; presence of 50 mM fructose): 0.42
Association constant (Ka) with glucose [7]: 4.0 ± 0.1 M⁻¹ and 5.1 ± 1.0 M⁻¹
fluorescence intensity change ΔI/I0 ([7]; glucose 0.20 M, λex 270 nm, λem 400 nm): 6 (0.20)
fluorescence intensity change ΔI/I0 ([7]; glucose 1.0 M, λex 300 nm, λem 445 nm): 17 (1.0)
maximum fluorescence intensity increase ([7]; glucose 1 M): 17 fold
fluorescence intensity change ΔI/I0 ([4]; galactose 0.025 M, λex 270 nm, λem 400 nm): 16 (0.025)
fluorescence intensity change ΔI/I0 ([4]; galactose 0.50 M, λex 300 nm, λem 445 nm): 35 (0.50)
emission intensity increase ([6]; 50 mM fructose, 0.1 M aqueous phosphate buffer pH 7.4): 41 fold
fluorescence intensity change ΔI/I0 ([6]; fructose 0.025 M, λex 270 nm, λem 400 nm): 25 (0.025)
fluorescence intensity change ΔI/I0 ([6]; fructose 0.05 M, λex 300 nm, λem 445 nm): 41 (0.05)
fluorescence intensity change ([6]; fructose at concentrations above 50 mM, physiological pH): more than 40 fold

Second part, the compound after the results:

pKa ([1]; phosphate buffer, absence of a sugar, read-out: pKa assigned to the quinolinium nitrogen): 5.2
pKa [2]: 7 to 12
Association constant (Ka) with mannose [3]: 60 ± 2 M⁻¹
Association constant (Ka) with galactose [4]: 90 ± 2 M⁻¹
Binding constant with arabinose [5]: 121 ± 16 M⁻¹
Association constant (Ka) with fructose [6]: 924 ± 88 M⁻¹
binding constant with D-fructose, increase compared with 8-QBA ([6]; 5-QBA versus 8-QBA): more than 8 folds
SMILES: OB(O)c1cccc2ncccc12 [Compound 3]

pKa [1, 15]: 7
Association constant (Ka) with mannose [3]: 30 ± 1.4 M⁻¹
Association constant (Ka) with glucose [7]: 27 M⁻¹ and 27 ± 4.9 M⁻¹
Association constant (Ka) with galactose [4]: 19 M⁻¹ and 19 ± 0.7 M⁻¹
Association constant (Ka) with fructose [6]: 656 ± 28 M⁻¹
SMILES: OB(O)c1cc2ccccc2s1 [Compound 5, 2-Benzothienylboronic acid]

pKa [1, 15]: 7.9
maximum fluorescence intensity increase ([7]; glucose 0.2 M): 6 fold
emission intensity increase ([6]; 25 mM fructose, phosphate buffer pH 7.4): 25 fold
SMILES: O=C(O)c1cc(-c2ccc(B(O)O)cc2)nc2ccccc12 [Compound 6, 2-(4-phenylboronic acid)-quinoline-4-carboxylic acid]
